PMC6925188, “PBRM1 acts as a p53 lysine-acetylation reader to suppress renal tumor growth” (Nature Communications, 2019)
Marks after values point to notes of the source that are not given here.

How the values were obtained:
Type in all cases: cell-based
[1] = test system: ACHN, Caki-1 and Ren-01 cells; experiment: Immunoblot of p53 targets, kidney cancer cells with PBRM1 shRNA knockdown; settings: 50 μM etoposide, Caki-1 and Ren-01
Description: (§1) Lysates were analyzed by immunoblots. c RCC4 cells with or without p53 KO were transfected with vector or Flag-PBRM1 at the indicated amounts. […] Cells were harvested for RT-qPCR (g) or ChIP followed by qPCR (h). […] Representative data is shown in i. Quantification of cell cycle phase is shown in j. Source data are provided as a Source Data file.
After washing with ice-cold PBS, cells were scraped on ice and centrifuged at 10,000 × g for 1 min at 4 °C. For immunoblot analysis, cell pellets were lysed in 1% SDS containing a protease inhibitor cocktail followed by sonication with a FB50 sonic dismembrator (Fisher Scientific) at 20% amplitude for 15 s twice. After centrifuging for 10 min at 14,000 × g, the supernatants were combined with 5X SDS loading buffer (5% mercaptoethanol, 0.05% Bromophenol blue, 30% glycerol, 10% SDS, 250 mM Tris-HCl (pH 6.8)), boiled for 5 min and used in SDS-PAGE. After standard western blot procedures, the blots were developed using the ImageQuant LAS 4000 (GE healthcare Life Sciences) or ChemiDoc MP Imaging System (Bio-rad) with HyGLO™ Chemiluminescent HRP Detection Reagent (E2500, Denville Scientific) or Immobilon™ Western Chemiluminescent HRP Substrate (WBKLS0500, Millipore). […]
the indicated times. Lysates were analyzed via immunoblots. b. […]
were analyzed by immunoblots. c. […]
Lysates were analyzed via immunoblots. e. […]
Lysates were analyzed via immunoblots. f, g, h. […]

RCC4 cells = experiment: RT-qPCR of p53 targets, RCC4 cells; parameters: CDKN1A expression / MDM2 expression / GADD45A expression / PUMA expression / NOXA expression: reference not given here; settings: 24 h; for CDKN1A expression / GADD45A expression / MDM2 expression / NOXA expression / PUMA expression: 100 μM
Description: as §1
Total RNA was extracted from cells using the RNeasy Plus Mini Kit (74136, Qiagen), and the concentration was measured using the NanoDrop ND-1000 system (Thermo Scientific). Reverse transcription was performed using the First Strand cDNA Synthesis Kit (NP100042, Origen) with 0.5 µg total RNA. Real-time PCR was performed with Maxima SYBR Green qPCR Master Mix (K0253, Thermo Scientific) using the Roche LightCycler 480. […] GAPDH was used as an internal control. Data are shown as mean ± SEM for three independent experiments.

SLR24 cells = experiment: Immunoblot of p53 targets, PBRM1-null SLR24 cells; settings: 50 μM etoposide
Description: The band intensity of indicated protein was measured with Bio-rad Image Lab 4.1, and the relative ratios were calculated over the signal intensity of Vinculin in the corresponding lanes. c–e. Nude mice xenograft analyses were performed with Ren-01 PBRM1 KO cells expressing GFP (left flank) or PBRM1 (right flank). Representative photographs of a mouse (c, top) and tumors (c, bottom). Tumors were excised and weighed, and data are presented as mean ± SEM (d). p-values were calculated using the paired two-tailed Student’s t-test. Tumors were stained for PBRM1 and p21 expression via IHC (e). Scale bar: 200 μm. f–h Nude mice xenograft analyses were performed with Ren-01 PBRM1 KO cells expressing wild-type PBRM1 (left flank) or the BD4* mutant PBRM1 (right flank). Tumors were excised and weighed, and data are presented as mean ± SEM (g). p-values were calculated using the paired two-tailed Student’s t-test. Representative photographs of a mouse (f, top) and tumors (f, bottom). Tumors were stained for PBRM1 and p21 expression via IHC analysis (h). Scale bar: 200 μm. Source data are provided as a Source Data file.
After washing with ice-cold PBS, cells were scraped on ice and centrifuged at 10,000 × g for 1 min at 4 °C. For immunoblot analysis, cell pellets were lysed in 1% SDS containing a protease inhibitor cocktail followed by sonication with a FB50 sonic dismembrator (Fisher Scientific) at 20% amplitude for 15 s twice. After centrifuging for 10 min at 14,000 × g, the supernatants were combined with 5X SDS loading buffer (5% mercaptoethanol, 0.05% Bromophenol blue, 30% glycerol, 10% SDS, 250 mM Tris-HCl (pH 6.8)), boiled for 5 min and used in SDS-PAGE. After standard western blot procedures, the blots were developed using the ImageQuant LAS 4000 (GE healthcare Life Sciences) or ChemiDoc MP Imaging System (Bio-rad) with HyGLO™ Chemiluminescent HRP Detection Reagent (E2500, Denville Scientific) or Immobilon™ Western Chemiluminescent HRP Substrate (WBKLS0500, Millipore).

**Q.** Which results are given for `COc1cc([C@@H]2c3cc4c(cc3[C@@H](O[C@@H]3O[C@@H]5CO[C@@H](C)O[C@H]5[C@H](O)[C@H]3O)[C@H]3COC(=O)[C@H]23)OCO4)cc(OC)c1O` [Etoposide]?
**A.** p21 induction by p53 with PBRM1 knockdown [1]: significantly reduced p21 induction; expression of p53 downstream targets with PBRM1 restoration (RCC4 cells; 100 μM etoposide, RCC4): up-regulated by restoration of PBRM1 but not PBRM1 BD4*; CDKN1A expression (RCC4 cells; RCC4-GFP, assay 1): 49.6546; GADD45A expression (RCC4 cells; RCC4-GFP, assay 1): 6.5687; MDM2 expression (RCC4 cells; RCC4-GFP, assay 1): 12.9102; NOXA expression (RCC4 cells; RCC4-GFP, assay 1): 7.6934; PUMA expression (RCC4 cells; RCC4-GFP, assay 1): 10.0905; CDKN1A expression (RCC4 cells; RCC4-GFP, assay 2): 44.3116; GADD45A expression (RCC4 cells; RCC4-GFP, assay 2): 5.0617; MDM2 expression (RCC4 cells; RCC4-GFP, assay 2): 12.821; NOXA expression (RCC4 cells; RCC4-GFP, assay 2): 9.2403; PUMA expression (RCC4 cells; RCC4-GFP, assay 2): 12.0208; CDKN1A expression (RCC4 cells; RCC4-GFP, assay 3): 55.0506; GADD45A expression (RCC4 cells; RCC4-GFP, assay 3): 5.7956; MDM2 expression (RCC4 cells; RCC4-GFP, assay 3): 12.4332; NOXA expression (RCC4 cells; RCC4-GFP, assay 3): 9.8148; PUMA expression (RCC4 cells; RCC4-GFP, assay 3): 9.8829; CDKN1A expression (RCC4 cells; RCC4-PBRM1-BD4*, assay 1): 45.9041; GADD45A expression (RCC4 cells; RCC4-PBRM1-BD4*, assay 1): 6.7644; MDM2 expression (RCC4 cells; RCC4-PBRM1-BD4*, assay 1): 11.4101; NOXA expression (RCC4 cells; RCC4-PBRM1-BD4*, assay 1): 9.833; PUMA expression (RCC4 cells; RCC4-PBRM1-BD4*, assay 1): 10.713; CDKN1A expression (RCC4 cells; RCC4-PBRM1-BD4*, assay 2): 43.4526; GADD45A expression (RCC4 cells; RCC4-PBRM1-BD4*, assay 2): 6.5588; MDM2 expression (RCC4 cells; RCC4-PBRM1-BD4*, assay 2): 13.589; NOXA expression (RCC4 cells; RCC4-PBRM1-BD4*, assay 2): 9.0815; PUMA expression (RCC4 cells; RCC4-PBRM1-BD4*, assay 2): 12.1902; CDKN1A expression (RCC4 cells; RCC4-PBRM1-BD4*, assay 3): 51.1258; GADD45A expression (RCC4 cells; RCC4-PBRM1-BD4*, assay 3): 6.6252; MDM2 expression (RCC4 cells; RCC4-PBRM1-BD4*, assay 3): 12.0244; NOXA expression (RCC4 cells; RCC4-PBRM1-BD4*, assay 3): 9.5044; PUMA expression (RCC4 cells; RCC4-PBRM1-BD4*, assay 3): 12.2164; CDKN1A expression (RCC4 cells; RCC4-PBRM1, assay 1): 70.754; GADD45A expression (RCC4 cells; RCC4-PBRM1, assay 1): 7.8588; MDM2 expression (RCC4 cells; RCC4-PBRM1, assay 1): 16.2786; NOXA expression (RCC4 cells; RCC4-PBRM1, assay 1): 11.5749; PUMA expression (RCC4 cells; RCC4-PBRM1, assay 1): 13.0108; CDKN1A expression (RCC4 cells; RCC4-PBRM1, assay 2): 72.9408; GADD45A expression (RCC4 cells; RCC4-PBRM1, assay 2): 6.8115; MDM2 expression (RCC4 cells; RCC4-PBRM1, assay 2): 15.8174; NOXA expression (RCC4 cells; RCC4-PBRM1, assay 2): 11.4155; PUMA expression (RCC4 cells; RCC4-PBRM1, assay 2): 15.9071; CDKN1A expression (RCC4 cells; RCC4-PBRM1, assay 3): 96.454; GADD45A expression (RCC4 cells; RCC4-PBRM1, assay 3): 7.8052; MDM2 expression (RCC4 cells; RCC4-PBRM1, assay 3): 16.0682; NOXA expression (RCC4 cells; RCC4-PBRM1, assay 3): 13.296; PUMA expression (RCC4 cells; RCC4-PBRM1, assay 3): 14.8041; p21, PUMA and MDM2 expression after DNA damage, wild-type vs BD4* PBRM1 or GFP (SLR24 cells; SLR24): significantly induced by wild-type but not BD4* mutant PBRM1 or GFP; p21 or PUMA induction (SLR24 cells; SLR24 cells): barely; p21 and PUMA induction with PBRM1-BD4* (SLR24 cells; SLR24 expressing PBRM1-BD4*): failed to induce their expression; p21 and PUMA induction with PBRM1-wt (SLR24 cells; SLR24 expressing PBRM1-wt, all time points): strongly induced
